Tested on: patient samples (pBMC from CLL patients)
Assay: Cytotoxicity assay of example 1 (new method), chemosensitivity index Ci
Assay type: cell-based, human
Procedure: (2) A more complex standardization is the calculation of an index. In case of the chemosensitivity testing it is not a single value that has to be standardized. The chemosensitivity towards a drug is tested with several concentrations of the drug in parallel in a cell culture assay. […] This method was adopted for the present invention from the analysis of DiSC assays (Staib et al., British Journal of Haematology, 2005, 128, 783-791). The Chemosensitivity Index Ci was designed as a prognostic index for ex vivo chemosensitivity assays. Assay results were expressed as percent tumor cell survival (% TCS). The dose-response curve as a function of the dose-response relationship may be mathematically described by a […] regression model (FIG. 4). The dose-response curve was defined as CS=c1*e^conc*c2 % with cell survival (CS), drug concentration (conc) and the constants c1 and c2. c1 represented the y-axis distance and c2 the slope of the curve. The area under the curve (AUC) as an exact measure for the total dose response relation was defined as AUC=−e^c1/c2, on condition that c2 is less than 0, otherwise AUC is infinite. The chemosensitivity index, Ci, was set up as Ci=e^−AUC*c with a domain between 0 and 1. The drug-specific constant c was used for adjusting the Ci-value of 0.5 as the cut-off point between resistance and sensitivity. The constant c was defined as
with AUCcut-off as the smallest AUC value among all clinical non-responding patients of the training data set. Obviously, all cytotoxic agents given for treatment were ineffective in these patients. The cut-off Ci value must be adjusted to 0.5 for prognosis of the effect of the drug on a patient in vivo when the drug is tested on said patient's cells in vitro using the method of the present invention. Ci values of 0-0.5 indicated resistance and values above 0.5 predicted sensitivity against the drug tested.
Peripheral blood mononuclear cells (pBMC) from a patient with chronic lymphatic leukaemia were isolated from the PB samples as described before (Staib, P. et al., Br. J. Haematol., 128(6):783-91 (2005)), resuspended in RPMI 1640 medium (Biochrom, Berlin, Germany) containing 20 vol. % fetal calf serum (FCS; Biochrom, Berlin, Germany) and added into the precoated 96-well plate with a final cell concentration of 10,000 cells/well and a volume of 100 μl. The plates were then agitated for 15 min in order to solubilize the dried fludarabine phosphate. Subsequently, the plates were incubated for 96 h (37° C., 5% CO2, humidified atmosphere). Thereafter, 50 μl of an 11 μM propidium iodide (PI)-solution in 0.9% aqueous NaCl solution (NaCl 0.9%) (Invitrogen, Leiden, Netherlands) were added and incubated for 15 min at room temperature. PI is a standard flow cytometric viability probe and is used to distinguish viable from nonviable cells. Viable cells with intact membranes exclude PI, whereas the membranes of dead and damaged cells are permeable to PI. PI only stains cells with compromised cell membrane, whilst live cells which have intact membranes are not stained by PI.
The chemosensitivity index Ci based on the DiSC assay as described in Staib, P. et al., Br. J. Haematol., 128(6):783-91 (2005) is known to have a very high accuracy of prediction (98%) for the clinical outcome of a particular chemotherapy (Staib, P. et al., Br. J. Haematol., 128(6):783-91 (2005)). In order to evaluate the accuracy of the cytotoxicity assay as described in example 1 (“new method”), the Ci determination was performed for assay results of patient samples analyzed with the traditional DiSC assay and—in parallel—with the new assay method described in example 1. In total, 22 patient samples were analyzed. Fludara® was used in both assays. The cytotoxicity assay of example 1 was performed as described therein, and the DiSC assay was performed as described in Staib, P. et al., Br. J. Haematol., 128(6):783-91 (2005).

## Nc1nc(F)nc2c1ncn2[C@@H]1O[C@H](COP(=O)(O)O)[C@@H](O)[C@@H]1O [Fludarabine phosphate, 2-Fluoro-9-(5-O-phosphono-β-D-arabinofuranosyl)-9H-purin-6-amine]
Of 22 patients
  patients DiSC-Assay resistant / New method sensitive: 0
  patients DiSC-Assay sensitive / New method resistant: 0
Patient #1
  Ci (New Method): 0.99
  prediction (New Method): sensitive (values above 0.5 predicted sensitivity against the drug tested)
Patient #2
  Ci (New Method): 0.94
  prediction (New Method): sensitive (values above 0.5 predicted sensitivity against the drug tested)
Patient #3
  Ci (New Method): 0.99
  prediction (New Method): sensitive (values above 0.5 predicted sensitivity against the drug tested)
Patient #4
  Ci (New Method): 0.89
  prediction (New Method): sensitive (values above 0.5 predicted sensitivity against the drug tested)
Patient #5
  Ci (New Method): 0.93
  prediction (New Method): sensitive (values above 0.5 predicted sensitivity against the drug tested)
Patient #6
  Ci (New Method): 0.79
  prediction (New Method): sensitive (values above 0.5 predicted sensitivity against the drug tested)
Patient #7
  Ci (New Method): 0.74
  prediction (New Method): sensitive (values above 0.5 predicted sensitivity against the drug tested)
Patient #8
  Ci (New Method): 0.83
  prediction (New Method): sensitive (values above 0.5 predicted sensitivity against the drug tested)
Patient #9
  Ci (New Method): 0.65
  prediction (New Method): sensitive (values above 0.5 predicted sensitivity against the drug tested)
Patient #10
  Ci (New Method): 0.74
  prediction (New Method): sensitive (values above 0.5 predicted sensitivity against the drug tested)
Patient #11
  Ci (New Method): 0.60
  prediction (New Method): sensitive (values above 0.5 predicted sensitivity against the drug tested)
Patient #12
  Ci (New Method): 0.81
  prediction (New Method): sensitive (values above 0.5 predicted sensitivity against the drug tested)
Patient #13
  Ci (New Method): 0.65
  prediction (New Method): sensitive (values above 0.5 predicted sensitivity against the drug tested)
Patient #14
  Ci (New Method): 0.63
  prediction (New Method): sensitive (values above 0.5 predicted sensitivity against the drug tested)
Patient #15
  Ci (New Method): 0.71
  prediction (New Method): sensitive (values above 0.5 predicted sensitivity against the drug tested)
Patient #16
  Ci (New Method): 0.35
  prediction (New Method): resistant (Ci values of 0-0.5 indicated resistance)
Patient #17
  Ci (New Method): 0.41
  prediction (New Method): resistant (Ci values of 0-0.5 indicated resistance)
Patient #18
  Ci (New Method): 0.35
  prediction (New Method): resistant (Ci values of 0-0.5 indicated resistance)
Patient #19
  Ci (New Method): 0.24
  prediction (New Method): resistant (Ci values of 0-0.5 indicated resistance)
Patient #20
  Ci (New Method): 0.36
  prediction (New Method): resistant (Ci values of 0-0.5 indicated resistance)
Patient #21
  Ci (New Method): 0.41
  prediction (New Method): resistant (Ci values of 0-0.5 indicated resistance)
Patient #22
  Ci (New Method): 0.24
  prediction (New Method): resistant (Ci values of 0-0.5 indicated resistance)

— patent publication US20100075370A1, “METHOD FOR DETERMINATION OF CELL VIABILITY BY USING FLOW CYTOMETRY WITH FIXED VOLUME ACQUISITION” (TUMORTEC GMBH, priority 2006, published 2010)
